PubChem BioAssay (NCI)
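Results reflect a 48-hour exposure of cells in 96-well plates to compound at five concentrations. The concentration for 50% growth inhibition is given as GI50. TGI is the concentration that stops growth completely.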

Columns and labels:
Experiment in all cases: NCI-60 cell line screen, 48 h
DLD-1 colon = test system: DLD-1 colon
SNB-78 CNS = test system: SNB-78 CNS
RXF-631 renal = test system: RXF-631 renal

Row | SMILES | TGI (DLD-1 colon) [µM] | TGI (SNB-78 CNS) [µM] | TGI (RXF-631 renal) [µM] | GI50 (DLD-1 colon) [µM] | GI50 (SNB-78 CNS) [µM]
1 | CCOC(=O)/C(C1=NCCN1C)=C(\O)c1ccccc1 | > 100 | > 100 |  |  | 
2 | O=C(c1ccccc1)n1cc(/C=C/[N+](=O)[O-])c2ccccc21 | 33.5 | 79.9 | 48.2 |  | 
3 | C#CN1C(=O)c2c(c(-c3ccccc3)c(-c3ccc(Oc4ccc(-c5c(-c6ccccc6)c6c(c(-c7ccccc7)c5-c5ccccc5)C(=O)N(C#C)C6=O)cc4)cc3)c(-c3ccccc3)c2-c2ccccc2)C1=O | > 100 |  |  |  | 
4 | Cc1c(-c2coc(-c3ccc([N+](=O)[O-])cc3)n2)c(=O)n(-c2ccccc2)n1C | > 100 | > 100 |  |  | 
5 | Cc1ccc(S(=O)(=O)c2ccc(C)cc2[N+](=O)[O-])c([N+](=O)[O-])c1 |  | > 100 |  |  | 
6 | c1ccc2cc(C3NCCc4[nH]cnc43)ccc2c1 (stereo not given) | > 100 | > 100 |  |  | 
7 | O=c1[nH]c(=O)n([C@H]2C[C@@H](CO)[C@@H](O)C2)cc1I | > 100 | > 100 |  |  | 
8 | COC(=O)C(=O)C(C(=O)OC)C(=O)C(=O)Nc1cc(Cl)c(C)cc1S(=O)(=O)O (stereo not given) | > 100 | > 100 |  |  | 
9 | O=C(O)C12C3CCC(C3)C1(C(=O)O)C1CCC2C1 (stereo not given) | 64.1 | > 100 | > 100 |  | 
10 | Cc1ccccc1N(CCC#N)C1=NN(C(=O)CC(=O)Nc2ccc(Cl)cc2)C(c2ccccc2)C1 (stereo not given) | > 100 | > 100 | > 100 |  | 
11 | O=C1C(Cl)C(c2ccc(O)cc2)N1n1cnc2ccccc2c1=O (stereo not given) | 55.3 | > 100 |  |  | 
12 | O=C1c2ccccc2C(=O)c2c1oc1cc(O)c(Cl)cc21 | 19.5 | 19.5 |  |  | 
13 | O=c1cccccc1[O-].O=c1cccccc1[O-].O=c1cccccc1[O-].[Nd+3] | > 100 | > 100 |  | 36.4 | 20.6
14 | CN1CCCS/C1=C1/SC(=S)N(c2ccccc2)C1=O | > 100 | > 100 | > 100 |  | 
15 | CN1CCS(=O)(=O)NC(Cc2ccccc2)C(=O)N2CCCC2C1=O (stereo not given) | > 100 | > 100 |  |  | 
16 | C/C=C1\Oc2ccc(OC)cc2S1(=O)=O | > 100 | > 100 |  |  | 
17 | COP12(OC)NC(=O)OC1(C(F)(F)F)c1ccccc1O2 (stereo not given) | > 100 | > 100 |  |  | 
18 | O=C1CCC(=O)c2ccccc2N1 | > 100 |  |  |  | 
19 | COc1ccc(OC(=O)N2C/C(=C\c3ccccc3)C(=O)/C(=C/c3ccccc3)C2)cc1 | 5.29 | 27.3 |  |  | 
20 | COc1ccc(S(=O)(=O)N/N=C(\C)CN2C(=O)c3ccccc3C2=O)cc1OC | > 100 | > 100 |  |  | 
21 | c1cc2c(cc1C1OCC3C(c4ccc5c(c4)OCO5)OCC13)OCO2 (stereo not given) | > 100 | > 100 |  |  | 
